Measurements: patent US20040028749A1, “Treating inflammation and associated complications” (priority 2000, published 2004)

Experiments:
Human RBCs = test: OSCN^−/OCN^− effects on intact RBC glutathione, enzymes and hemolysis; assay type: cell-based; details: lysates and membranes of RBCs exposed to 100 μM OSCN^−/OCN^−; 10 mM DTT
Description: After 30 minutes, cells were pelleted by centrifugation at 2000×g for 3 minutes and washed three times in ice-cold HEPES/Hanks' (H & H) buffer. […] RBC lysates and membranes were then prepared by hypotonic lysis and assayed for glutathione and glyceraldehyde-3-phosphate dehydrogenase (GAPDH), glutathione-S-transferase (GST), and lactate dehydrogenase (LDH) activity as described by Beutler (see Beutler (1974) Red Cell Metabolism A Manual of Biochemical Methods Grune and Stratton, Inc., Orlando, Fla.) and for ATPase activity as described below. Hemolysates were incubated for an additional 15 minute with or without 10 mM DTT and reassayed for GAPDH, GST, and ATPases.
Intracellular levels of the SH-containing oxidant scavenger glutathione were assayed. In addition, the activities of three enzymes, GST, GAPDH, and membrane ATPases, which are known to be vulnerable to SH-oxidation-based inactivation, as well as LDH which is not prone to such inactivation were assayed.

[1] = intranasal 1 mM SCN^−, 1 mM Br^− or 100 μM NO2^−
Description: The following experiment is performed to determine if by directly manipulating the relative substrate halide composition of the intrabronchial luminal contents, the severity of the resulting EPO-mediated oxidative damage and so the severity of the induced pathologies can be influenced. […] From the day before initiation of aerosol ovalbumin challenge, four groups of guinea pigs (n=15) are subjected to intranasal instillation of 300 μL of PBS (100 mM Cl^−), PBS+1 mM NaSCN, PBS+1 mM NaBr, or PBS+100 μmol NaNO2 in each nostril. Intranasal instillation is performed every 6 hours until the time of analysis. The numbers of animals in each group is determined from power calculations assuming unpaired design. A group size of 15 animals per group allows for detecting a change in Br—Y, PC50, and histologic severity index amongst the OVA-challenged animal of ≧125% of the S.D. of the experimental groups with 90% power, P<0.05.
As for Section VI, Example 10, pulmonary functions, and chloro-, bromo-, and NO2—Y in BAL and whole lung homogenates are determined. […] Multiple linear regression is used to determine factors responsible for changes in PC50 or histologic severity of airway damage. PC50 or histologic severity is treated as a continuous variable and correlated Br—Y and NO2—Y levels in BAL and whole lung by multiple regression.

RBC ATPases = test: Oxidant inactivation of RBC membrane ATPase activity; assay type: biochemical, human; details: even at 1 mM
Description: Membrane preparations rather than intact RBC were used to allow all oxidants equal access to intra- and extracellular membrane components.

[2] = system: S. mansoni schistosomules; test: Toxicity of hypohalous acids for schistosomules; assay type: cell-based; details: for toxicity for the parasite relative to host cells: schistosomules vs mammalian cells; for LD50 for schistosomules: two hours exposure
Description: (§1) To determine how generation of HOSCN subserves the physiological function of EOs, i.e., to destroy tissue-invasive parasites, the following experiment was performed. Reagent grade HOSCN was generated by (i) adding human EPO (10 μg/mL) and 1 mM NaSCN to Hank's buffer, (ii) adding five 100 μM boluses of H2O2 at 3 minute intervals, (iii) adding 20 μg/mL of catalase to consume unreacted H2O2, and (iv) removing protein by filtration through a PM-10 membrane (Amicon). HOSCN was then assayed by TNB titration. Mammalian cells used included cultured human and porcine aortic endothelium, rat cardiac myocytes, P338D1 murine lymphoma, and RBCs. Freshly transformed S. mansoni schistosomules (obtained from James Kazura at Case Western University) were also used. Both were exposed to reagent HOSCN for two hours, then assayed for cytotoxicity by (i) ^51Cr release, (ii) hemolysis (mammalian cells) or (iii) light microscopy observations of granularity, lack of motion, and methylene blue dye exclusion (somules). Results in Table 1 indicate that HOSCN killed both schistosomules and host cells. Whereas HOCl and HOBr were equally toxic for host cells and somules, HOSCN was 10-15 times more toxic for the parasite.

mammalian cells = test: Cytotoxicity of hypohalous acids for mammalian cells (51Cr release, hemolysis); assay type: cell-based; details: two hours exposure
Description: as §1

human EOs [3] = test: EO-mediated nitration and bromination of HPA; assay type: cell-based; details: PMA-activated EOs; for EO-mediated nitration of HPA: 50 μM NO2^−, 100 μM Br^−
Description: (§2) These studies were performed in the presence of CO2 (5% gas phase) and […] the medium (4.2 mM) to mimic a biologically relevant situation. Leukocytes ([…]) were incubated at 37° C. under 95% air, 5% CO2, in Medium A (Ca^2+/Mg^2+/phenol-free HBSS; Life Technologies, (Gaithersburg, Md.) supplemented with 100 μM NaBr, 50 μM L-arginine, and 200 μM DTPA, pH 7.4 final) in the absence or presence of NaNO2 (0<50 μM, as indicated in the figure legends). […] Cells were activated by addition of PMA (200 nM) and incubated for either 1 hour or the indicated time interval. In some experiments, EOs were activated in the presence of an exogenous NO source by addition of PAPA NONOate (Alexis) for 1 minute following PMA addition. Rates of NO flux were determined spectrophotometrically by reaction of NO with oxyhemoglobin as described in Baek et al. (Baek et al. (1993) J Biol Chem 268:21120) under the identical conditions used for experiments, but in the absence of any added cells. To maintain a final pH of 7.4 during experiments with PAPA NONOate, incubations were performed in Medium B (Medium A containing only 100 mM NaCl and supplemented with 20 mM sodium phosphate, pH 7.4). […] In some cases, leukocyte reaction mixtures also contained one of the following: 1 mM NaN3, 10 mM 3-aminotriazole (Atz), 300 nM catalase (Cat), 300 nM heat-inactivated catalase (hiCat), 10 μg/ml superoxide dismutase (SOD), 1 mM methionine (Met), or 1 mM N^α-acetyl lysine.
(§3) NO2—Y production by isolated EOs was quantified by reversed phase HPLC with photodiode array detection (see Wu et al. (1999) J Biol Chem 274:25933). […] The nitrated (NO2-HPA; 3-(4-hydroxy-3-nitrophenyl)propanoic acid), brominated (Br-HPA; 3-(3-bromo-4-hydroxyphenyl)propanoic acid), and chlorinated (Cl-HPA; 3-(3-chloro-4-hydroxyphenyl)propanoic acid) products of the tyrosine analog, HPA, were routinely quantified by reversed phase HPLC with electrochemical (coulometric) detection on an ESA CoulArray HPLC (Cambridge, Mass.) equipped with UV detector and electrochemical cells (eight channels) (Wu et al. (1999) J Biol Chem 274:25933). […] Authentic standards of NO2-HPA, Br-HPA, and Cl-HPA were prepared by reaction of HPA with a molar equivalent of ONOO^−, HOBr, or HOCl, respectively.
Use of this low molecular mass surrogate for a protein-bound tyrosine residue permitted more facile quantification of the relative capacity of EOs to promote aromatic nitration and halogenation reactions of phenolic targets.

human EOs [4] = test: NO2—Y formation by activated human EOs; assay type: cell-based; details: agonist 100 nM, exogenous NO2^−
Description: as §2, with “HBSS;” for “HBSS; Life Technologies, (Gaithersburg, Md.) supplemented with 100 μM NaBr, 50 μM L-arginine, and 200 μM DTPA, pH 7.4 final) in the absence or presence of NaNO2 (0<50 μM, as indicated in the figure legends).”, “NO2—Y production by isolated EOs was quantified by reversed phase HPLC with photodiode array detection (see Wu et al. (1999) J Biol Chem 274:25933). […]” for “In some cases, leukocyte reaction mixtures also contained one of the following: 1 mM NaN3, 10 mM 3-aminotriazole (Atz), 300 nM catalase (Cat), 300 nM heat-inactivated catalase (hiCat), 10 μg/ml superoxide dismutase (SOD), 1 mM methionine (Met), or 1 mM N^α-acetyl lysine.”

[5] = wild type mouse
Description: Mice were sensitized by intranasal instillation of Aspergillus and aeroallogen challenged one month later with aerosol saline (control) or Aspergillus (antigen challenged). At 2 days before the one-month aeroallogen challenge, one group of antigen-challenged animals received i.p. 0.5 mL of 0.1% KSCN and 0.1% KSCN in drinking water. Three days after the aeroallogen challenge, both groups were challenged with intranasal inoculums of Candida and 6 hours later subjected to BAL and the content of supernatant protein Br—Y determined using stable isotope dilution GC-MS.

EPO [6] = molecular target: T1, EPO (Homo sapiens, UniProt P11678); details: physiologic concentrations (20-120 μM) of SCN^−; 100 μM Br, 100 mM Cl^−
Text: All other reagents were obtained from Sigma Chemical Co. (St. Louis, Mo.).

LPO, or EPO = details: 100 μM SCN^−, LPO or EPO present
EPO [7] = system: EPO
Description: The EPO/NO2^−/H2O2 system generates reactive nitrogen species that generates bioactive eicosanoids, e.g. hydroxyeicosatetraenoic acids (HETEs) from unilamellar vesicles comprised of 1-palmitoyl-2-arachidonyl-sn-glycero-3-phosphocholine (PAPC). […] Reaction mixtures consisting of 0.8 mg lipid/mL PAPC, 60 nM EPO, 100 μM NO2^−, 100 ng/mL glucose oxidase, 100 μg/mL glucose were incubated for 2 hours at 37° C. HETEs were analyzed by lipid extraction and HPLC with on-line electrospray ionization tandem mass spectometry (LC/MS/MS).

EPO or LPO = details: O2^.− generating system
Description: NO decay was determined in phosphate buffer in the absence versus presence of plasma levels of halides using an NO-selective electrode. NO-saturated buffer was added to a continuously stirred reaction mixture.

[8] = SCN^− supplementation
Description: Four experimental groups, each comprised of 15 guinea pigs are utilized for these studies.
The first group is the control and receives KCl in lieu of KClO4 to control for the effect of potassium. […] Perchlorate treatments are initiated three days prior to OVA aerosol challenges and maintained throughout the experimental period until the time of analysis. Specimens are analyzed according to the protocol described. The experimental groups are compared using an appropriate statistical method (i.e., parametric or non-parametric) based upon ANOVA.
All four groups are then pooled to determine correlations between (i) methacholine challenge PC50 and (ii) BAL and whole lung Br—Y and NO2—Y levels. Correlations were also determined between (i) histologic severity and (ii) BAL and/or whole lung Br—Y and NO2—Y levels.

activated human EOs = details: 5 mM azide
Description: Purified EOs were washed, suspended at 4×10^6/mL in a modified Hank's balanced salt solution composed of 5.3 mM KCl, 138 mM NaCl, 0.4 mM potassium phosphate, 5.3 mM sodium phosphate, 5.5 mM D-glucose, 1.3 mM CaCl2, and 0.5 mM MgCl2, pH 7.4 supplemented with 1 mM KSCN. EOs were divided into three groups that were supplemented with (i) nothing (control), (ii)1 μg/mL phorbol 12-myristate 13-acetate (PMA), or (iii) 1 μg/mL PMA and 5 mM azide. EOs were then incubated at 37° C. for 60 minutes in capless 5 mL round-bottom tubes. The tubes were vortexed every 15 minutes to aid oxygenation. After the incubation, the samples were centrifuged for 10 minutes, 1000×g at 4° C. The supernatants were placed in Microcon concentrators (Amicon, Mass.) with membranes of 3000 Dalton molecular weight cut off and centrifuged for 30 minutes, 13,000×g at 4° C. to remove degranulated proteins. The filtrates were assayed for HOSCN and cyanate quantities.
As a gauge of the potential physiologic relevance of the above findings—all made with a purified reagent system—intact, activated human EOs were examined to determine whether HOSCN and OCN^− are generated. […]

EPO [9] = molecular target: T1, EPO
Description: To determine the relative time courses of HOSCN and cyanate generation, H2O2 was added to a reaction mixture containing phosphate buffered saline (PBS) with 1 mM KSCN, pH 7.4, and 0.4 μM EPO. H2O2 was added by continuous infusion at 50 μM/minute for 20 minutes to simulate the continuous generation of H2O2 by the respiratory burst of an activated EO. An aliquot was (i) removed from the reaction mixture prior to and at various time intervals after initiating addition of H2O2, (ii) supplemented with 40 μg/mL catalase to consume unreacted H2O2, and (iii) placed on ice until subsequent assay of oxidants and cyanate as described.
H2O2 was continuously infused at 50 μM/minute for 20 minutes, simulating the continuous generation of H2O2 by the respiratory burst of an activated EO. Aliquots were removed from the reaction mixture at one-minute intervals and catalase was added to destroy excess unreacted H2O2 prior to assay of TNB-reactive substances and cyanate.

activated EOs = test: NO2-HPA formation by activated EOs with exogenous NO donor; assay type: cell-based, human
Description: as §2, §3

MPO = MPO (Homo sapiens, UniProt P05164); details: pre-incubation of the enzyme solution
Description: Initial experiments utilized an NO-selective electrode (ISO-NO Mark II, World Precision Instruments, Sarasota, Fla.) to determine whether NO serves as a general substrate for peroxidases. Reactions were performed under conditions where peroxidases were present in catalytic amounts Experiments were performed at 25° C. by immersing the electrode in 10 mL of 0.2 M sodium phosphate buffer, pH 7.0, under air. NO was added to continuously stirred buffer solution from an NO-saturated stock and the rise and fall in NO concentration was continuously monitored using a chart recorder. To determine the effect of H202 and peroxidases on NO levels during steady state catalysis, 10 μl H202 (100 μM final) and 50 μL enzyme (150 nM final) were added to the reaction mixture. Where indicated, solutions were supplemented with NaCl (100 mM) and/or a cell-free O2^.−-generating system comprised of lumazine (0.4 mm) and bovine milk xanthine oxidase (XO, Boehringer Mannheim).
To examine the potential physiological significance of these observations, the effect of additional substrates on peroxidase-catalyzed consumption of NO was examined. MPO was initially used as a model peroxidase because of its abundance at sites of leukocyte recruitment and activation during inflammation and its well-known use of the abundant halide Cl^− as substrate.

[10] = high rates of NO flux (>2 μM/min)
[11] = low rates of NO flux (<2 μM/min)

T1 sequence (P11678 251-715 limits assumed): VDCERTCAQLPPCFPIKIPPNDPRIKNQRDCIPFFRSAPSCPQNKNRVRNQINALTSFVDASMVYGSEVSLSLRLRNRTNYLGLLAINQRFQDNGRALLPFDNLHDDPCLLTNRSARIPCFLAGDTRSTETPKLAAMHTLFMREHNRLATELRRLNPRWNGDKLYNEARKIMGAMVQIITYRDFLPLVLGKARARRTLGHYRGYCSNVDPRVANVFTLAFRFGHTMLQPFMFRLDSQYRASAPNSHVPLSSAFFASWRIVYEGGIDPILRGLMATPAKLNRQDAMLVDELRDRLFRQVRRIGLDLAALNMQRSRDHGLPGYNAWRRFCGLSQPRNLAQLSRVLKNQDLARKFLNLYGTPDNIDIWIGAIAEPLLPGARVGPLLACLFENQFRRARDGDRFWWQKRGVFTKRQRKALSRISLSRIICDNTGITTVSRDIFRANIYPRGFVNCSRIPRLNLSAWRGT
T1 sequence (P11678 140-250 limits assumed): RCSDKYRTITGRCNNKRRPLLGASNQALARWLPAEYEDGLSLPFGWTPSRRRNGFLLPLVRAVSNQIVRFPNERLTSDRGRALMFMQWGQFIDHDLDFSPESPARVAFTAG
Chain of MPO (P05164 279-745 limits assumed): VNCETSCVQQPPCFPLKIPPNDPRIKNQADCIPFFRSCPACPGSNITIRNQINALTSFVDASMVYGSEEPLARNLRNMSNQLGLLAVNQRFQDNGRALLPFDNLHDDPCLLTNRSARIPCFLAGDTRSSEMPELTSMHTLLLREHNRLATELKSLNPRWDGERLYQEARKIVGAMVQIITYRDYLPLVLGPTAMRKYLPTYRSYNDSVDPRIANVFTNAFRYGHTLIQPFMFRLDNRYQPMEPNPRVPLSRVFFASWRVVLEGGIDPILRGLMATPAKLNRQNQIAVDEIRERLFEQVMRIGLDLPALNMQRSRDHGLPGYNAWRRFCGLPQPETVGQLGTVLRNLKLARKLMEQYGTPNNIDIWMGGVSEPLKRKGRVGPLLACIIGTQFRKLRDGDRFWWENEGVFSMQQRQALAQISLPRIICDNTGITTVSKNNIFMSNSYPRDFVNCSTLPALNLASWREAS
Chain of MPO (P05164 165-273 limits assumed): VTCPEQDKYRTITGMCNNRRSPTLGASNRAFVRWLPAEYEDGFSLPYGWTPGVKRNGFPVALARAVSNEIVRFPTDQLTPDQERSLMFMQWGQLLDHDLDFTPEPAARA

O[C@H](CS)[C@H](O)CS (racemic) [DTT, dithiothreitol]
GST, GAPDH and ATPase activity after OSCN^−/OCN^− exposure (Human RBCs): completely restored the activities of all three enzymes

Br [Br^−, bromide]
levels of Br—Y and NO2—Y and severity of resulting asthma [1]: increase

OO [H2O2, hydrogen peroxide]
inactivation of RBC ATPases (RBC ATPases): failed to inactivate ATPases

OBr [HOBr, hypobromous acid]
toxicity for the parasite relative to host cells [2]: equally toxic
LD50 for schistosomules [2]: 10 µM
LD50 for mammalian cells (mammalian cells): 10 to 33 µM

OCl [HOCI, hypochlorous acid]
toxicity for the parasite relative to host cells [2]: equally toxic
LD50 for schistosomules [2]: 10 µM
LD50 for mammalian cells (mammalian cells): 10 to 33 µM

N#CSO [HOSCN]
toxicity for the parasite relative to host cells [2]: 10-15 times
LD50 for schistosomules [2]: 20 µM
LD50 for mammalian cells (mammalian cells): 200 to 300 µM

CC(=O)N[C@@H](CCCCN)C(=O)O [N-acetyl lysine, N^α-acetyl lysine]
cell-dependent bromination of HPA (human EOs [3]): lack of inhibition

CSCC[C@H](NC=O)C(=O)N[C@@H](CC(C)C)C(=O)N[C@@H](Cc1ccccc1)C(=O)O [N-formyl-methionyl-leucyl-phenylalanine]
NO2—Y levels produced, less than with PMA-stimulated EOs (human EOs [4]): 8 fold

O=NO [NO2^−, nitrite]
levels of Br—Y and NO2—Y and severity of resulting asthma [1]: increase

N#CS [SCN^−, thiocyanate]
BrY reduced from w.t. antigen-challenged ([5]; SCN supplemented): BrY 86% reduced
Lavage fluid bromotyrosine ([5]; antigen challenge, 0.1% KSCN i.p. and in drinking water): 196 ± 103 μmol Br—Y/μmol Y
EPO production of HOBr (EPO [6]): blocked
relaxation of preconstricted bronchial rings in response to NO (LPO, or EPO): do so when high physiologic concentrations of SCN^− are added
HETE generation from PAPC vesicles by EPO/SCN^−/H2O2 system (EPO [7]; 100 μM SCN^−): no detectable HETEs
HETE generation from PAPC vesicles by EPO/NO2^−/H2O2 system (EPO [7]; physiological concentration of SCN^−): severely attenuated
peroxidase-mediated NO consumption (EPO or LPO): attenuation/inhibition of peroxidase-mediated NO consumption
Br—Y and NO2—Y levels, functional and histologic pulmonary pathology [8]: will reduce
levels of Br—Y and NO2—Y and severity of resulting asthma [1]: ameliorates
mean lung Br—Y/Y (NaSCN i.p. and 0.2% in drinking water, OVA challenge): 0.93 mmol/mol
rise of Br—Y/Y after OVA challenge (dietary supplementation with SCN^− prior to OVA challenge): completely abrogated

[N-]=[N+]=[N-].[Na+] [azide, sodium azide]
PMA-stimulated generation of HOSCN and OCN^− (activated human EOs): severely attenuated
EO-mediated nitration of HPA (human EOs [3]): inhibited
generation of both HOSCN and OCN^− (EPO [9]; azide 1 mM): nearly completely blocked
HOSCN levels at plateau stage of progression curve (EPO [9]; azide added during H2O2 infusion): abrupt collapse of HOSCN levels
NO2-HPA formation (activated EOs; [10]): increasingly less sensitive to inhibition
NO2-HPA formation (activated EOs; [11]): inhibited
NO consumption by MPO (MPO): prevented

CSCC[C@H](N)C(=O)O [methionine]
EO-mediated nitration of HPA (human EOs [3]): inability of the HOBr scavenger methionine to affect nitration

B1: catalase: hydrogen peroxide scavenger (protein, UniProt P00432 2-527, looked up)
Catalase: ADNRDPASDQMKHWKEQRAAQKPDVLTTGGGNPVGDKLNSLTVGPRGPLLVQDVVFTDEMAHFDRERIPERVVHAKGAGAFGYFEVTHDITRYSKAKVFEHIGKRTPIAVRFSTVAGESGSADTVRDPRGFAVKFYTEDGNWDLVGNNTPIFFIRDALLFPSFIHSQKRNPQTHLKDPDMVWDFWSLRPESLHQVSFLFSDRGIPDGHRHMNGYGSHTFKLVNANGEAVYCKFHYKTDQGIKNLSVEDAARLAHEDPDYGLRDLFNAIATGNYPSWTLYIQVMTFSEAEIFPFNPFDLTKVWPHGDYPLIPVGKLVLNRNPVNYFAEVEQLAFDPSNMPPGIEPSPDKMLQGRLFAYPDTHRHRLGPNYLQIPVNCPYRARVANYQRDGPMCMMDNQGGAPNYYPNSFSAPEHQPSALEHRTHFSGDVQRFNSANDDNVTQVRTFYLKVLNEEQRKRLCENIAGHLKDAQLFIQKKAVKNFSDVHPEYGSRIQALLDKYNEEKPKNAVHTYVQHGSHLSAREKANL
EO-mediated nitration of HPA (human EOs [3]): inhibited
NO2-HPA formation (activated EOs; [10]): increasingly less sensitive to inhibition
NO2-HPA formation (activated EOs; [11]): significantly attenuated
